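Briefly, cells in 96-well plates were exposed to five compound concentrations for 48 h, and endpoints were estimated by linear interpolation. GI50 is the concentration that inhibits growth by half. Definition used: TGI = concentration required for complete inhibition of growth.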

Test systems include HL-60(TB) leukemia; T-47D breast; RXF 393 renal; HCT-15 colon; OVCAR-8 ovarian; EKVX NSCLC; HT29 colon; HOP-62 NSCLC; NCI-H460 lung; OVCAR-4 ovarian; DMS 273 small cell lung; DMS 114 small cell lung; OVCAR-3 ovarian; HOP-18 NSCLC.
Assay in all cases: NCI anticancer screen, dose series, 48 h

Take `c1ccc(-c2nn(-c3ccccc3)[n+](-c3ccccc3)n2)cc1`: the TGI was 6.47 µM in the test with HL-60(TB) leukemia; above 100 µM in the test with T-47D breast; 80.6 µM in the test on RXF 393 renal; above 100 µM in the test on HCT-15 colon; above 100 µM with OVCAR-8 ovarian; above 43 µM in the test with EKVX NSCLC. For the same compound, the TGI in the test on HT29 colon, with HOP-62 NSCLC, with NCI-H460 lung and in the test on OVCAR-4 ovarian was above 100 µM each time.

As for `CCC(C)C(=O)c1c(O)c(C/C=C(\C)CCC=C(C)C)c(O)c2c(C(O)CC)cc(=O)oc12` (configuration not stated), the TGI with HL-60(TB) leukemia turned out to be 3.48 µM; in the test with RXF 393 renal it was 7.19 µM; in the test on EKVX NSCLC, 10.1 µM; in the test on HT29 colon, 3.62 µM; with HOP-62 NSCLC, 4.08 µM; with DMS 273 small cell lung it was 8.29 µM. Moreover, the TGI in the test on NCI-H460 lung came to 7.23 µM; in the test with DMS 114 small cell lung, 3.35 µM; in the test on OVCAR-4 ovarian, 10.5 µM; in the test with OVCAR-3 ovarian, 12.6 µM.

As for `CC[n+]1c(/C=C/c2ccc(N(CCCl)CCCl)cc2)ccc2cc(NC(=O)/C=C/c3ccccc3)ccc21`, the TGI in the test on HL-60(TB) leukemia was 0.389 µM; in the test with HOP-18 NSCLC, 13 µM; with T-47D breast, 1.5 µM; in the test on RXF 393 renal, 2.84 µM; in the test with HCT-15 colon, above 94.7 µM; in the test on OVCAR-8 ovarian, 5.7 µM. Besides, the TGI came to 4.76 µM with EKVX NSCLC; 1.36 µM in the test on HT29 colon; 1.74 µM with HOP-62 NSCLC; 1.36 µM in the test with NCI-H460 lung; 13.8 µM in the test with DMS 114 small cell lung; 11.4 µM with OVCAR-3 ovarian.

Take `Cn1c(-c2ccc(/C=N\N3CCN(/N=C/c4ccc(-c5c[n+]6ccccc6n5C)cc4)CC3)cc2)c[n+]2ccccc12`: the TGI is 56.9 µM in the test with HL-60(TB) leukemia; above 100 µM in the test with T-47D breast; 60.9 µM with RXF 393 renal; above 100 µM with HCT-15 colon; above 100 µM with OVCAR-8 ovarian; above 100 µM in the test on EKVX NSCLC. Also, the TGI with HT29 colon, in the test on NCI-H460 lung, in the test with OVCAR-4 ovarian and in the test with OVCAR-3 ovarian was above 100 µM throughout.

Regarding `COc1ccc(CC(C)N)cc1` (configuration not stated), the TGI with HL-60(TB) leukemia, with HOP-18 NSCLC, with RXF 393 renal, in the test with HCT-15 colon, in the test with OVCAR-8 ovarian and in the test with EKVX NSCLC was above 100 µM throughout. Further, the TGI with HT29 colon, in the test with HOP-62 NSCLC, in the test with DMS 273 small cell lung, in the test on NCI-H460 lung, in the test on DMS 114 small cell lung and with OVCAR-4 ovarian was above 100 µM in each case. Further, the TGI in the test with OVCAR-3 ovarian is above 100 µM.

As to `CC1(C)N=C(N)N=C(N)N1c1cccc(OCCOc2ccc([N+](=O)[O-])cc2)c1`, the TGI in the test on HL-60(TB) leukemia, in the test on RXF 393 renal, with HCT-15 colon, in the test on OVCAR-8 ovarian, in the test with EKVX NSCLC and with HT29 colon was above 100 µM each time. Besides, the TGI in the test on HOP-62 NSCLC, in the test with NCI-H460 lung, in the test on OVCAR-4 ovarian and in the test on OVCAR-3 ovarian was above 100 µM throughout.

For `COc1cc(C2c3cc4c(cc3[C@@H](Nc3cccc(C(C)=O)c3)C3COC(=O)[C@H]23)OCO4)cc(OC)c1O` (some centres not stated), the TGI with HL-60(TB) leukemia was 0.328 µM; in the test with HOP-18 NSCLC, 54.3 µM; with RXF 393 renal, 5.4 µM; in the test on HCT-15 colon, 2.06 µM; in the test with OVCAR-8 ovarian, above 28.9 µM; in the test on EKVX NSCLC, above 22.3 µM. Besides, the TGI with HT29 colon is 6.53 µM; in the test on HOP-62 NSCLC, 0.538 µM; in the test on DMS 273 small cell lung, 1.81 µM; in the test with NCI-H460 lung it was 1.07 µM; in the test on DMS 114 small cell lung, 4.77 µM; with OVCAR-4 ovarian, above 100 µM. Further, the TGI in the test with OVCAR-3 ovarian is 13.9 µM.

Consider `O=[N+]([O-])c1cn[n+]([O-])c2ccccc12`, for which the TGI in the test with HL-60(TB) leukemia was 3.59 µM; in the test on T-47D breast, 18 µM; in the test on HCT-15 colon, 8.52 µM; in the test with OVCAR-8 ovarian, 11.6 µM; with EKVX NSCLC it was 26.1 µM; with HT29 colon, 35.2 µM. The TGI in the test on HOP-62 NSCLC was found to be 26.2 µM; with NCI-H460 lung it was 24.5 µM; with OVCAR-3 ovarian, 7.28 µM.

In the case of `Brc1ccccc1-c1ncc(-c2ccccc2)o1`, the TGI in the test on HL-60(TB) leukemia was above 100 µM; with T-47D breast, above 100 µM; in the test on RXF 393 renal, 55.9 µM; with HCT-15 colon it was 44.9 µM; in the test with OVCAR-8 ovarian, above 100 µM; with EKVX NSCLC it was above 100 µM. The TGI with HT29 colon is above 100 µM; in the test on HOP-62 NSCLC, 96.8 µM; in the test with NCI-H460 lung it was above 100 µM; with OVCAR-4 ovarian it was above 100 µM; in the test on OVCAR-3 ovarian, 89.6 µM.

On to `COc1ccc(NC(=O)/C(CC2=Nc3ccc([N+](=O)[O-])cc3NC2O)=N\NC(=O)C[N+](C)(C)C)c(OC)c1` (configuration not stated), for which the TGI in the test on HL-60(TB) leukemia was above 100 µM; in the test with RXF 393 renal it was above 100 µM; in the test on HCT-15 colon it was above 100 µM; in the test on OVCAR-8 ovarian, 69.8 µM; in the test with EKVX NSCLC, above 100 µM; in the test on HT29 colon, above 100 µM. Besides, the TGI in the test with HOP-62 NSCLC, in the test on NCI-H460 lung, in the test with OVCAR-4 ovarian and in the test with OVCAR-3 ovarian was above 100 µM in each case.

In the case of `COc1ccc(-c2cc(N3CCN(c4ccccc4)CC3)c(C#N)c(=O)o2)cc1`, the TGI is above 100 µM in the test on HL-60(TB) leukemia; 62.2 µM in the test with HOP-18 NSCLC; 38 µM in the test on RXF 393 renal; above 100 µM in the test with HCT-15 colon; above 100 µM with OVCAR-8 ovarian; above 100 µM in the test with EKVX NSCLC. Moreover, the TGI in the test with HT29 colon is above 100 µM; in the test with DMS 273 small cell lung, above 100 µM; in the test on NCI-H460 lung, above 100 µM; in the test on DMS 114 small cell lung, above 100 µM; with OVCAR-4 ovarian, 15 µM.

With `Cc1ccc(S(N)(=O)=O)cc1`, the TGI with HL-60(TB) leukemia, in the test with T-47D breast, with RXF 393 renal, in the test on HCT-15 colon, with OVCAR-8 ovarian and in the test on EKVX NSCLC was above 1000 µM throughout. Besides, the TGI in the test with HT29 colon, in the test with HOP-62 NSCLC, in the test with NCI-H460 lung and in the test on OVCAR-3 ovarian was above 1000 µM each time.

For the compound `CN(C)c1ccc(N=Nc2ccccn2)cc1`, the TGI was 52.3 µM in the test with HL-60(TB) leukemia; above 100 µM in the test on T-47D breast; above 100 µM with RXF 393 renal; above 100 µM in the test with HCT-15 colon; above 100 µM in the test with OVCAR-8 ovarian; above 100 µM in the test with EKVX NSCLC. Moreover, the TGI with HT29 colon, in the test on HOP-62 NSCLC, in the test on NCI-H460 lung, with OVCAR-4 ovarian and in the test with OVCAR-3 ovarian was above 100 µM throughout.

In the case of `N#Cc1c(NC(=S)NC(=O)c2ccccc2)nc2c(c1-c1ccccc1)CCCC2`, the TGI with HL-60(TB) leukemia was above 100 µM; in the test on T-47D breast, above 100 µM; with RXF 393 renal it was 56.5 µM; with HCT-15 colon it was above 100 µM; with OVCAR-8 ovarian it was above 100 µM; in the test on HT29 colon, above 100 µM. The TGI in the test with HOP-62 NSCLC, in the test with NCI-H460 lung, in the test on OVCAR-4 ovarian and in the test on OVCAR-3 ovarian was above 100 µM in each case.

Regarding `NCc1ccccc1C1CSCSC1`, the TGI in the test on HL-60(TB) leukemia, in the test on RXF 393 renal, in the test on HCT-15 colon, in the test with OVCAR-8 ovarian, with HT29 colon and in the test with DMS 273 small cell lung was above 100 µM each time. Further, the TGI with NCI-H460 lung, in the test on DMS 114 small cell lung, in the test on OVCAR-4 ovarian and in the test on OVCAR-3 ovarian was above 100 µM in each case.

`CC(C)(Br)C1(O)CCCN1C(=O)c1ccccc1` (configuration not stated): the TGI in the test on HL-60(TB) leukemia, in the test on HOP-18 NSCLC, with RXF 393 renal, in the test with HCT-15 colon, in the test with OVCAR-8 ovarian and with EKVX NSCLC was above 100 µM each time. The TGI in the test on HT29 colon, with DMS 273 small cell lung, in the test on NCI-H460 lung and in the test on OVCAR-3 ovarian was above 100 µM each time.

Consider `C=C1C(=O)OC2C1CC(O)/C(C)=C\CCC1(C)OC21` (configuration not stated), for which the TGI in the test with HL-60(TB) leukemia was 83.8 µM; with T-47D breast, above 100 µM; in the test with RXF 393 renal, 31.8 µM; in the test on HCT-15 colon, 33.5 µM; with OVCAR-8 ovarian it was above 100 µM; with EKVX NSCLC, above 100 µM. The TGI with HT29 colon was above 100 µM; with HOP-62 NSCLC, 49.3 µM; in the test on NCI-H460 lung, above 100 µM; in the test with OVCAR-4 ovarian, above 100 µM; in the test with OVCAR-3 ovarian it was 34.1 µM.

`C#CC[C@@H]1C[C@]2(C)[C@H]3CC=C4[C@H]5CC(C)(C)CC[C@]5(C(=O)NCCCCN)CC[C@@]4(C)[C@]3(C)CC[C@H]2C(C)(C)[C@H]1OC(C)=O`: the GI50 in the test with HL-60(TB) leukemia was 1.77 µM; in the test on T-47D breast, 1.72 µM; with RXF 393 renal, 1.52 µM; in the test on EKVX NSCLC it was 1.69 µM; in the test on NCI-H460 lung, 1.84 µM; in the test on OVCAR-4 ovarian, 1.71 µM. The TGI in the test with HL-60(TB) leukemia worked out at 3.71 µM; in the test with T-47D breast it was 3.48 µM; in the test with RXF 393 renal it was 2.95 µM; in the test with EKVX NSCLC, 3.3 µM; in the test with NCI-H460 lung it was 3.47 µM; in the test on OVCAR-4 ovarian it was 3.23 µM.

`NCc1ccc(C(=O)O)cc1`: the TGI with HL-60(TB) leukemia, in the test on T-47D breast, in the test with RXF 393 renal, with HCT-15 colon, in the test on OVCAR-8 ovarian and with EKVX NSCLC was above 100 µM in each case. In addition, the TGI in the test on HT29 colon, with HOP-62 NSCLC, in the test on NCI-H460 lung, in the test on OVCAR-4 ovarian and in the test with OVCAR-3 ovarian was above 100 µM each time.

As to `CCO/N=[N+](\[O-])N(CC)CC`, the TGI in the test on HL-60(TB) leukemia, in the test with RXF 393 renal, in the test on HCT-15 colon, in the test on OVCAR-8 ovarian, in the test on EKVX NSCLC and in the test with HT29 colon was above 100 µM each time. Also, the TGI in the test on HOP-62 NSCLC, in the test on DMS 273 small cell lung, in the test with NCI-H460 lung and in the test on OVCAR-3 ovarian was above 100 µM in each case.

For `COc1cc[n+](C)cc1`, the TGI with HL-60(TB) leukemia, in the test with HOP-18 NSCLC, with RXF 393 renal, in the test with HCT-15 colon, with OVCAR-8 ovarian and in the test on EKVX NSCLC was above 100 µM each time. The TGI in the test on HT29 colon, in the test with HOP-62 NSCLC, with DMS 273 small cell lung, in the test with NCI-H460 lung, in the test on DMS 114 small cell lung and with OVCAR-4 ovarian was above 100 µM each time. For the same compound, the TGI with OVCAR-3 ovarian is above 100 µM.

Source of the values: PubChem BioAssay (NCI).
